# Results reported in patent publication US6737383B1, “Herbicidal oxadiazolidines” (priority 1999, dated 2004).
# Tests used:
# cocklebur = assay: Test B pre/postemergence cocklebur; format: in vivo, Xanthium strumarium
# How it was run: (§1)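 Herbicidal effect was estimated by eye on a ten-point control scale after plants spent twelve to sixteen days in a greenhouse following soil or foliar treatment. Foliar sprays targeted plants at one to four leaves; all doses were formulated in a non-phytotoxic solvent with surfactant.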
# corn = assay: Test B pre/postemergence corn; format: in vivo, Zea mays
# How it was run: as §1
# blackgrass = assay: Test B pre/postemergence blackgrass; format: in vivo, Alopecurus myosuroides
# How it was run: as §1
# pigweed = assay: Test B pre/postemergence pigweed; format: in vivo, Amaranthus retroflexus
# How it was run: as §1
# soybean = assay: Test B pre/postemergence soybean; format: in vivo, Glycine max
# How it was run: as §1
# surinam grass = assay: Test B pre/postemergence surinam grass; format: in vivo, Brachiaria decumbens
# How it was run: as §1
# rice = assay: Test B flood test rice; format: in vivo, Oryza sativa
# How it was run: (§2)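 Flood test on plants grown to the 2-leaf stage; treated plants kept in greenhouse twelve to sixteen days, then visually rated against controls on a 0 (no effect) to 10 (complete control) scale.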
# bedstraw = assay: Test B pre/postemergence bedstraw; format: in vivo, Galium aparine
# How it was run: as §1
# duck salad = assay: Test B flood test duck salad; format: in vivo, Heteranthera limosa
# How it was run: as §2
# crabgrass = assay: Test B pre/postemergence crabgrass; format: in vivo, Digitaria sanguinalis
# How it was run: as §1
# purple nutsedge = assay: Test B pre/postemergence purple nutsedge; format: in vivo, Cyperus rotundus
# How it was run: as §1
# morningglory = assay: Test B pre/postemergence morningglory; format: in vivo, Ipomoea hederacea
# How it was run: as §1
# wild oat = assay: Test B pre/postemergence wild oat; format: in vivo, Avena fatua
# How it was run: as §1
# sugar beet = assay: Test B pre/postemergence sugar beet; format: in vivo, Beta vulgaris
# How it was run: as §1
# smallflower flatsedge = assay: Test B flood test smallflower flatsedge; format: in vivo, Cyperus difformis
# How it was run: as §2
# giant foxtail = assay: Test B pre/postemergence giant foxtail; format: in vivo, Setaria faberii
# How it was run: as §1
# [1] = Postemergence, Rate 62 g/ha, scale 0 to 10, 0 is no effect, 10 is complete control
# [2] = Postemergence, Rate 250 g/ha, scale 0 to 10, 0 no effect, 10 complete control
# [3] = Preemergence, Rate 62 g/ha, scale 0 to 10 (0 no effect, 10 complete control)
# [4] = Preemergence, Rate 125 g/ha, scale 0 to 10 (0 no effect, 10 complete control)
# [5] = Preemergence, Rate 250 g/ha, scale of 0 to 10 where 0 is no effect and 10 is complete control
# [6] = Preemergence, Rate 500 g/ha, scale 0 (no effect) to 10 (complete control)
# [7] = Rate 125 g/ha, Postemergence, scale 0 to 10, 0 no effect, 10 complete control
# [8] = Rate 500 g/ha, Postemergence, scale 0 to 10, 0 no effect, 10 complete control
# [9] = Rate 125 g/ha, Postemergence section (flood test species), scale 0 to 10, 0 no effect, 10 complete control
# [10] = Rate 500 g/ha, listed under Postemergence (flood test species), scale 0 to 10, 0 no effect, 10 complete control
# [11] = flood test, listed under Postemergence, Rate 250 g/ha, scale 0 to 10, 0 no effect, 10 complete control
structure (smiles),measurement,setting,value
Cc1cccc(C(C)C)c1-n1c(=O)on(C(=O)N(c2ccc(Cl)cc2)C(C)C)c1=O [Compound 64],Cocklebur plant response rating,cocklebur; [1],0
same,Cocklebur plant response rating,cocklebur; [2],0
same,Cocklebur plant response rating,cocklebur; [3],0
same,"Plant response rating, Cocklebur",cocklebur; [4],0
same,"Plant response rating, Cocklebur",cocklebur; [5],0
same,Cocklebur plant response rating,cocklebur; [6],0
same,Cocklebur plant response rating,cocklebur; [7],0
same,Cocklebur plant response rating,cocklebur; [8],0
same,Corn plant response rating,corn; [1],0
same,Corn plant response rating,corn; [2],0
same,Corn plant response rating,corn; [3],0
same,"Plant response rating, Corn",corn; [4],0
same,"Plant response rating, Corn",corn; [5],0
same,Corn plant response rating,corn; [6],0
same,Corn plant response rating,corn; [7],0
same,Corn plant response rating,corn; [8],0
same,Blackgrass plant response rating,blackgrass; [1],0
same,Blackgrass plant response rating,blackgrass; [2],0
same,Blackgrass plant response rating,blackgrass; [3],0
same,"Plant response rating, Blackgrass",blackgrass; [4],0
same,"Plant response rating, Blackgrass",blackgrass; [5],0
same,Blackgrass plant response rating,blackgrass; [6],0
same,Blackgrass plant response rating,blackgrass; [7],0
same,Blackgrass plant response rating,blackgrass; [8],0
same,Redroot pigweed plant response rating,pigweed; [1],0
same,Redroot pigweed plant response rating,pigweed; [2],0
same,Redroot pigweed plant response rating,pigweed; [3],0
same,"Plant response rating, Redroot pigweed",pigweed; [4],0
same,"Plant response rating, Redroot pigweed",pigweed; [5],0
same,Redroot pigweed plant response rating,pigweed; [6],0
same,Redroot pigweed plant response rating,pigweed; [7],0
same,Redroot pigweed plant response rating,pigweed; [8],0
same,Soybean plant response rating,soybean; [1],0
same,Soybean plant response rating,soybean; [2],0
same,Soybean plant response rating,soybean; [3],0
same,"Plant response rating, Soybean",soybean; [4],0
same,"Plant response rating, Soybean",soybean; [5],0
same,Soybean plant response rating,soybean; [6],0
same,Soybean plant response rating,soybean; [7],0
same,Soybean plant response rating,soybean; [8],1
same,B. signalgrass plant response rating,surinam grass; [1],0
same,B. signalgrass plant response rating,surinam grass; [2],0
same,B. signalgrass plant response rating,surinam grass; [3],0
same,"Plant response rating, B. signalgrass",surinam grass; [4],0
same,"Plant response rating, B. signalgrass",surinam grass; [5],0
same,B. signalgrass plant response rating,surinam grass; [6],0
same,B. signalgrass plant response rating,surinam grass; [7],0
same,B. signalgrass plant response rating,"surinam grass; Rate 500 g/ha, Postemergence, scale of 0 to 10 where 0 is no effect and 10 is complete control",0
same,Rice plant response rating,rice; [1],0
same,Rice plant response rating,rice; [9],0
same,Rice plant response rating,rice; [10],0
same,Rice plant response rating,rice; [11],0
same,Bedstraw plant response rating,bedstraw; [1],0
same,Bedstraw plant response rating,bedstraw; [2],0
same,Bedstraw plant response rating,bedstraw; [3],0
same,"Plant response rating, Bedstraw",bedstraw; [4],0
same,"Plant response rating, Bedstraw",bedstraw; [5],0
same,Bedstraw plant response rating,bedstraw; [7],0
same,Bedstraw plant response rating,bedstraw; [8],0
same,Ducksalad plant response rating,duck salad; [1],0
same,Ducksalad plant response rating,duck salad; [9],0
same,Ducksalad plant response rating,duck salad; [10],0
same,Ducksalad plant response rating,duck salad; [11],0
same,Crabgrass plant response rating,crabgrass; [1],0
same,Crabgrass plant response rating,crabgrass; [2],0
same,Crabgrass plant response rating,crabgrass; [3],0
same,"Plant response rating, Crabgrass",crabgrass; [4],0
same,"Plant response rating, Crabgrass",crabgrass; [5],2
same,Crabgrass plant response rating,crabgrass; [6],3
same,Crabgrass plant response rating,crabgrass; [7],0
same,Crabgrass plant response rating,crabgrass; [8],0
same,Nutsedge plant response rating,purple nutsedge; [1],0
same,Nutsedge plant response rating,purple nutsedge; [2],0
same,Nutsedge plant response rating,purple nutsedge; [3],0
same,"Plant response rating, Nutsedge",purple nutsedge; [4],0
same,"Plant response rating, Nutsedge",purple nutsedge; [5],0
same,Nutsedge plant response rating,purple nutsedge; [7],0
same,Nutsedge plant response rating,purple nutsedge; [8],0
same,Morningglory plant response rating,morningglory; [1],0
same,Morningglory plant response rating,morningglory; [2],0
same,Morningglory plant response rating,morningglory; [3],0
same,"Plant response rating, Morningglory",morningglory; [4],0
same,"Plant response rating, Morningglory",morningglory; [5],0
same,Morningglory plant response rating,morningglory; [6],0
same,Morningglory plant response rating,morningglory; [7],0
same,Morningglory plant response rating,morningglory; [8],0
same,Wild oats plant response rating,wild oat; [1],0
same,Wild oats plant response rating,wild oat; [2],0
same,Wild oats plant response rating,wild oat; [3],0
same,"Plant response rating, Wild oats",wild oat; [4],0
same,"Plant response rating, Wild oats",wild oat; [5],0
same,Wild oats plant response rating,wild oat; [6],0
same,Wild oats plant response rating,wild oat; [7],0
same,Wild oats plant response rating,wild oat; [8],0
same,Sugarbeets plant response rating,sugar beet; [1],0
same,Sugarbeets plant response rating,sugar beet; [2],0
same,Sugarbeets plant response rating,sugar beet; [3],0
same,"Plant response rating, Sugarbeets",sugar beet; [4],0
same,"Plant response rating, Sugarbeets",sugar beet; [5],0
same,Sugarbeets plant response rating,sugar beet; [6],0
same,Sugarbeets plant response rating,sugar beet; [7],0
same,Sugarbeets plant response rating,sugar beet; [8],0
same,S. Flatsedge plant response rating,smallflower flatsedge; [1],0
same,S. Flatsedge plant response rating,smallflower flatsedge; [9],0
same,S. Flatsedge plant response rating,smallflower flatsedge; [10],0
same,S. Flatsedge plant response rating,smallflower flatsedge; [11],0
same,Giant foxtail plant response rating,giant foxtail; [1],0
same,Giant foxtail plant response rating,giant foxtail; [2],0
same,Giant foxtail plant response rating,giant foxtail; [3],0
same,"Plant response rating, Giant foxtail",giant foxtail; [4],0
same,"Plant response rating, Giant foxtail",giant foxtail; [5],3
same,Giant foxtail plant response rating,giant foxtail; [6],4
same,Giant foxtail plant response rating,giant foxtail; [7],0
same,Giant foxtail plant response rating,giant foxtail; [8],0
